Series [1] has as its target T1, LmCS (L. major cysteine synthase) (Leishmania major, UniProt Q4Q159).
T1 sequence (Q4Q159 1-333): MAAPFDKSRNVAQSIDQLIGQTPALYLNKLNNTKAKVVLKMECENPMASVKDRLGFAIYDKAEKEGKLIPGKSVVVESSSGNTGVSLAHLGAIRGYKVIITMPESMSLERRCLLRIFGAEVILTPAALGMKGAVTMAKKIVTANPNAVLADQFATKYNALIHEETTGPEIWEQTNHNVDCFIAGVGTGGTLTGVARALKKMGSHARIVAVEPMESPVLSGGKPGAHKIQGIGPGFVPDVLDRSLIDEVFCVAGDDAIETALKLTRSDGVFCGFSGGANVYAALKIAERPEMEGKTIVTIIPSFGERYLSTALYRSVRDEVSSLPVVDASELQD
Kind of series: biochemical.

For series [2], the target named is T2, AtOAS-TL (A. thaliana O-acetylserine thiol-lyase) (Arabidopsis thaliana, UniProt P47998). Kind of series: biochemical.
T2 sequence (P47998 whole entry): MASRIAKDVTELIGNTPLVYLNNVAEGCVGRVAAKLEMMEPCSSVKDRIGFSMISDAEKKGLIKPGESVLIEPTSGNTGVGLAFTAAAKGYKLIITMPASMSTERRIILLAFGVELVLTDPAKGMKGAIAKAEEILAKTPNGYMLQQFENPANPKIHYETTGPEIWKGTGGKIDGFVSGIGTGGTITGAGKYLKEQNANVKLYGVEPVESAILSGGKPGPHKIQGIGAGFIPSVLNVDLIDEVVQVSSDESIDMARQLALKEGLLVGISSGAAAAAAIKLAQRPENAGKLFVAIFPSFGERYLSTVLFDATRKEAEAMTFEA
Series [3] addresses T2, AtOAS-TL (A. thaliana O-acetylserine thiol-lyase). The following applies: read-out: AtOAS-TL IC50; 3 mM OAS, 2 mM sodium sulfide, pH 7.8, room temperature; values with ± are mean ± SD of three determinations, others single IC50 curve.
In series [4] the test system is Mycobacterium tuberculosis CS (OASS). The following applies: ref Schnell et al., 2007; cited from earlier work.
Series [5] addresses T3, Leishmania major cysteine synthase, C-terminally His-tagged (biochemical analysis) (Leishmania major) (UniProt Q4Q159).
T3 sequence: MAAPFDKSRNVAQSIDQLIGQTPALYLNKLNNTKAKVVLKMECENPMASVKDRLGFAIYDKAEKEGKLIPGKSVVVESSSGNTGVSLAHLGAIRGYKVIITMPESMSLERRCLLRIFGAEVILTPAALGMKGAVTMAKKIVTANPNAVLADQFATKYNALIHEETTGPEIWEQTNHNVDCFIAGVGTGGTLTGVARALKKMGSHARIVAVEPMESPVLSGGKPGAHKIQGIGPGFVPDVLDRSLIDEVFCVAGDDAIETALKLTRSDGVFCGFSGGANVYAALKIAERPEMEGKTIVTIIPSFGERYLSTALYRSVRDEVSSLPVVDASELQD

Series [6] deals with Arabidopsis thaliana O-acetylserine thiol-lyase (Arabidopsis thaliana, UniProt P47998 1-322). Kind of series: cell-based or functional assay.
Arabidopsis thaliana O-acetylserine thiol-lyase, sequence (P47998 whole entry): as the sequence (P47998 whole entry) above
Series [7] deals with the molecule itself. The series is described as follows: crystal structure; hanging drop at 293 K, 7.5% PGA-LM, 19% PEG 3350, 0.1 M Tris-HCl pH 7.8; P212121, dimer in the asymmetric unit; 1.8 Å; molecular replacement.
Series [8] addresses Arabidopsis thaliana O-acetylserine thiol-lyase (Arabidopsis thaliana) (UniProt P47998).
The mark [9] stands for this setting: LmCS IC50, 3 mM OAS, 2 mM sodium sulfide, pH 7.8, room temperature, values with ± are mean ± SD of three determinations, others single IC50 curve.
Setting [10] is: 3 mM OAS, 2 mM sodium sulfide, pH 7.8, room temperature, values with ± are mean ± SD of three determinations, others single IC50 curve, read-out: LmCS IC50.

Where two headings read alike, the source gives them in different places. Where a SMILES comes first, the peptide text is derived from it. Where no end group is shown, it is not given here. The star is where a group is joined. Cbz = O=C(OCc1ccccc1)*

Arabidopsis thaliana O-acetylserine thiol-lyase (Arabidopsis thaliana), sequence (P47998 whole entry): as the sequence (P47998 whole entry) above

Regarding (γ-Glu)4, the “inhibition of LmCS” value is “unable to detect any significant inhibition” in series [1] (tested up to a concentration of 500 µM) and “insignificant inhibitory activity” in series [1] (tested up to a concentration of 500 µM, listed as D-glutamate tetrapeptide). Regarding DGSGI [DGSGI], the results for the IC50 in series [1] (setting [9]) and in series [2] were 620 ± 50 µM and 170 µM, respectively. Turning to `CC[C@H](C)[C@H](NC(=O)CNC(=O)[C@H](CO)NC(=O)CN)C(=O)O` [GSGI] (H-GSGI-OH), the 50% inhibitory concentration (IC50) in series [1] (LmCS IC50, 3 mM OAS, 2 mM sodium sulfide) was around 1500 µM; in series [1] (setting [9]) it was 1500 µM; in series [3] it was at most 2000 µM. Turning to `CC[C@H](C)[C@H](NC(=O)OCc1ccccc1)C(=O)O` [N-CBZ-L-isoleucine], 320 µM corresponded to half-maximal inhibition in series [1] (IC50). As for DFSI, the “type of inhibition of M. tuberculosis OASS” value in series [4] is recorded as “competitive inhibitor”. Consider `CC[C@H](C)[C@H](N)C(=O)O` [L-Isoleucine], for which the IC50 in series [1] (setting [10]) was above 4000 µM. In addition, the “inhibition of LmCS” value in series [1] (at 4 mM) was “no activity”. In the case of `CC[C@H](C)[C@H](NC(=O)Cc1c[nH]c2ccccc12)C(=O)O` [N-3-Indolylacetyl-L-isoleucine], the half-maximal inhibitory concentration (IC50) in series [1] (setting [10]) was found to be 260 µM. As to EGDGSGI [EGDGSGI], the IC50 in series [1] (setting [9]) was determined as 270 ± 70 µM; in series [2], 240 µM.

In series [1], `CC[C@H](C)[C@H](NC(=O)[C@@H](NC(=O)[C@H](Cc1ccc(O)cc1)NC(=O)[C@@H](N)CC(=O)O)C(C)C)C(=O)O` [DYVI] (H-DYVI-OH) yielded a Ki of 4 µM. For the same molecule, 7 ± 1 µM corresponded to half-maximal inhibition in series [1] (setting [9]) (IC50). Consider `CC[C@H](C)[C@H](NC(=O)[C@@H](NC(=O)OCc1ccccc1)C(C)C)C(=O)O` [N-CBZ-L-valine-isoleucine] (Cbz-Val-Ile-OH), for which the IC50 in series [1] stood at 1410 µM.

B1: DYVI, peptide based on the C-terminus of A. thaliana serine acetyltransferase (peptide)
peptide: DYVI
modifications: not fully specified
As for B1, the figures for the IC50 of inhibition of cysteine synthase activity (cysteine production; 3 mM OAS, 2 mM sodium sulfide) in series [5] and in series [6] were 7 µM and 8 µM, respectively.

B2: Leishmania major cysteine synthase (crystallised form, His tag cleaved) (enzyme)
chain: MAAPFDKSRNVAQSIDQLIGQTPALYLNKLNNTKAKVVLKMECENPMASVKDRLGFAIYDKAEKEGKLIPGKSVVVESSSGNTGVSLAHLGAIRGYKVIITMPESMSLERRCLLRIFGAEVILTPAALGMKGAVTMAKKIVTANPNAVLADQFATKYNALIHEETTGPEIWEQTNHNVDCFIAGVGTGGTLTGVARALKKMGSHARIVAVEPMESPVLSGGKPGAHKIQGIGPGFVPDVLDRSLIDEVFCVAGDDAIETALKLTRSDGVFCGFSGGANVYAALKIAERPEMEGKTIVTIIPSFGERYLSTALYRSVRDEVSSLPVVDASELQD
notes: Leishmania major cysteine synthase (EC 2.5.1.47); LmCS gene subcloned from pET21a+ into pET15bTEV; theoretical mass of one subunit 35.6 kDa; residues 3-213 and 241-333 (subunit A) and 4-214 and 241-333 (subunit B) are seen in the model; The pyridoxal phosphate cofactor was lost in the crystal; A fragment of gamma-poly-D-glutamic acid lies in the active site; also called LmCS; L. major CS; source: …
For B2, the “stoichiometry N” value in series [7] came out at 2.

B3: GSGI, Leishmania SAT C-terminal peptide (peptide)
peptide: GSGI
As for B3, the results for the IC50 of inhibition of cysteine synthase activity (cysteine production; 3 mM OAS, 2 mM sodium sulfide); single IC50 curve in series [8] and in series [5] were below 2000 µM and 1500 µM, respectively.

B4: EGDGSGI, Leishmania SAT C-terminal heptapeptide (peptide)
peptide: EGDGSGI
As for B4, the IC50 of inhibition of cysteine synthase activity (cysteine production; 3 mM OAS, 2 mM sodium sulfide); single IC50 curve in series [8] is 240 µM. Further, in series [5], the IC50 of inhibition of cysteine synthase activity (cysteine production; 3 mM OAS, 2 mM sodium sulfide) came to 270 µM.

B5: DGSGI, Leishmania SAT C-terminal peptide (peptide)
peptide: DGSGI
B5 displayed an IC50 of inhibition of cysteine synthase activity (cysteine production; 3 mM OAS, 2 mM sodium sulfide); single IC50 curve in series [8] of 170 µM. Also, the IC50 of inhibition of cysteine synthase activity (cysteine production; 3 mM OAS, 2 mM sodium sulfide) in series [5] is 620 µM.

The term IC50 denotes the point on the concentration scale where inhibition reaches its midpoint. Broadly, the Ki is a measure of affinity in units of concentration, obtained from inhibition or displacement. The stoichiometry N is a count of units in the complex or per binding partner.

Source of the values: publication PMC3388911, “Structure of Leishmania major cysteine synthase” (Acta Crystallographica Section F: Structural Biology and …, 2012).
